From ChEMBL document CHEMBL3407412, “Synthesis and bioevaluation of pyrazole-benzimidazolone hybrids as novel human 4-Hydroxyphenylpyruvate dioxygenase inhibitors” (Eur J Med Chem, 2015)

These compounds were tested against 4-hydroxyphenylpyruvate dioxygenase (Homo sapiens, UniProt P32754) (assay: Inhibition of human recombinant His-tagged HPPD expressed in Escherichia coli BL21(DE3) by UV/visible plate reader analysis).
Sequence of 4-hydroxyphenylpyruvate dioxygenase (P32754 whole entry): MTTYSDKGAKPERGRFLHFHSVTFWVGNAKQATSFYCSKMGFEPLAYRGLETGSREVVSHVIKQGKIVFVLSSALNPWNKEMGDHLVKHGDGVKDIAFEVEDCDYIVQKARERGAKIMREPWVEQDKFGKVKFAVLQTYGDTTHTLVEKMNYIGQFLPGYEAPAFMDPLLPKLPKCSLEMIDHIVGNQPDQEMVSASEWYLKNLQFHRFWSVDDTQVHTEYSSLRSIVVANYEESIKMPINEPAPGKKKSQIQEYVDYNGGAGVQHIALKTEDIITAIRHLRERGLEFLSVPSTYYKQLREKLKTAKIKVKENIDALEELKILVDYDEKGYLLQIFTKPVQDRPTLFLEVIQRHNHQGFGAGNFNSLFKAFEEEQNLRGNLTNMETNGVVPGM

Compared with `CCCCn1c(=O)n(C)c2ccc(C(=O)c3cnn(C)c3O)cc21`, `CCCn1c(=O)n(CC)c2cc(C(=O)c3cnn(C)c3O)ccc21` is 4.4-fold lower in IC50: 0.17 µM for the first, 0.039 µM for the second. The second is the more potent here.

First: Cn1ncc(C(=O)c2ccc3c(c2)n(C(C)(C)C)c(=O)n3C)c1O
Second: Cc1ccc(-n2c(=O)n(C)c3ccc(C(=O)c4cnn(C)c4O)cc32)cc1
The IC50 of the first is 2.5-fold lower: 0.1 µM for the first, 0.25 µM for the second. The first is the more potent here.

Going from `Cc1nn(C)c(O)c1C(=O)c1ccc2c(c1)n(CC(C)C)c(=O)n2C` to `Cc1nn(C)c(O)c1C(=O)c1ccc2c(c1)n(Cc1ccccc1)c(=O)n2C`, the IC50 falls from 2.71 µM to 0.67 µM (4-fold). The second is the more potent here.
